The values that follow come from publication PMC4717260, “2-(2,4-Dioxy-1,2,3,4-Tetrahydropyrimidin-1-yl)-N-(4-Phenoxyphenyl)-Acetamides as a Novel Class of Cytomegalovirus Replication Inhibitors” (Acta Naturae, 2015).

Read-outs that look alike come from different tables or passages of the source.

Broadly, the melting point is the temperature of the solid-liquid transition. One may read the EC50 as the concentration at which the effect is half-maximal.

Data set [1] concerns the target thymidine kinase deficient VZV mutant strain (07-1). In words: Anti-VZV activity (thymidine kinase deficient mutant strain 07-1). It is filed as cell-based, varicella zoster virus.
A further data set relates to VZV (Oka strain). In words: microbe, parasite or virus in culture. It is filed as cell-based, varicella zoster virus. As to conditions: read-out: EC50, VZV replication (Oka strain).
Data set [2] deals with CMV (AD-169 and Davis strains). In words: Anti-CMV activity in HEL cell culture. It is filed as cell-based, human cytomegalovirus. As to conditions: read-out: EC50, inhibition of CMV replication.

`C#CCn1ccc(=O)n(CC(=O)Nc2ccc(Oc3ccccc3)cc2)c1=O` yielded a melting point of 226 to 228 °C.

`Cc1ccc(Cn2ccc(=O)n(CC(=O)Nc3ccc(Oc4ccccc4)cc3)c2=O)cc1` showed a melting point of 193 to 194 °C.

In the case of `O=C(Cn1c(=O)ccn(CC=Cc2ccccc2)c1=O)Nc1ccc(Oc2ccccc2)cc1`, the melting point was in the range of 184 to 185 °C.

Turning to `O=C(Cn1c(=O)ccn(CCOc2ccccc2)c1=O)Nc1ccc(Oc2ccccc2)cc1`, the melting point was in the range of 154 to 155 °C.

Take `O=C(Cn1c(=O)ccn(Cc2ccccc2)c1=O)Nc1ccc(Oc2ccccc2)cc1` [Compound 4, 2-(3-Benzyl-2,6-dioxo-3,6-dihydropyrimidin-1(2H)-yl)-N-(4-phenoxyphenyl)acetamides]: the EC50 is 6.68 µM in data set [1] (strain 07-1, resistant to acyclovir and brivudine, read-out: EC50, thymidine kinase deficient VZV mutant strain (07-1)); 8.18 µM with VZV (Oka strain) (HEL cell culture, Oka strain); 3.06 to 8.9 µM in data set [2] (one range printed for both compounds and both strains).

`Cc1cc(C)cc(Cn2ccc(=O)n(CC(=O)Nc3ccc(Oc4ccccc4)cc3)c2=O)c1` [Compound 6, 2-[3-(3,5-Dimethylbenzyl)-2,6-dioxo-3,6-dihydropyrimidin-1(2H)-yl]-N-(4-phenoxyphenyl)acetamide] gave a melting point of 99 to 101 °C. For the same compound, the EC50 in data set [1] (Human alphaherpesvirus 3, read-out: EC50, thymidine kinase deficient VZV mutant strain (07-1)) is 16.1 µM. Further, in the data set on VZV (Oka strain) (Human alphaherpesvirus 3, HEL), the EC50 turned out to be 17 µM. In addition, the EC50 in data set [2] (Human betaherpesvirus 5, AD169, one range printed for both compounds and both strains) fell in the range of 3.06 to 8.9 µM.

As for `O=c1[nH]c(=O)n([C@H]2C[C@H](O)[C@@H](CO)O2)cc1/C=C/Br` [brivudine, reference compound], in the data set on VZV (Oka strain) (Human alphaherpesvirus 3, HEL), the EC50 worked out at 0.026 µM.
